Data on 7 compounds can be found in patent publication US20240349727A1, “SYNERGY BETWEEN MIXTURES OF ISOTHIOCYANATES AND COMMERCIAL FUNGICIDES” (priority 2021, published 2024).

A word on the EC50: it is the concentration giving half of the maximal effect.

Like-named read-outs stand apart in the source and are kept apart here.

Common to all, as to format: cell-based
One assay deals with Fusarium verticilloides. The experiment in a line: In vitro fungitoxic activity, 48-well PDA outgrowth, curative (Example 2). The settings on record: 168 h, fungicide alone, 7 days at room temperature. Here is the method:
(§1) All the experiments were done in the same way. In 48-well plates, each well was filled with a volume of 180 μL of the ITC, the fungicide or a combination of both at various concentrations and filled with 180 μL of Potato Dextrose Agar (PDA). Two or three wells were used per concentration for better accuracy. After solidification of the well a plug of 2×2 mm of grown fungi was placed in each well, and the 48-well plate was sealed with parafilm. After 7 days of incubation at room temperature, the fungal outgrowth was measured and the EC50 was calculated with a 4-parameter logistic regression in XLSTAT.
(§2) Afterward, a concentration of the fungicides at which the fungi is not growing (i.e. […] the EC50) was determined. Applicants repeated the 48-well experiment by filling the well with a mixture of the ITC and the fungicides; the fungicide concentration was kept constant at the determined concentration mentioned above and the ITC concentration was varied. As before, the fungal outgrowth was measured after 7 days of incubation. To calculate the synergistic properties of the combo ITC+fungicides, the Combination Index (CI) described by Chou (2006) was calculated using the CompuSyn software.

Assay [1] has as its system Rhizoctonia solani. The experiment in a line: In vitro fungitoxic activity, 48-well PDA outgrowth, curative. Particulars: 168 h, fungicide alone, 7 days at 20° C. Here is the method: (§3) All the experiments were done in the same way, with small differences between curative and preventive cases. In 48-well plates, each well was filled with a volume of 180 μL of the ITC, the fungicide or a combination of both at various concentrations and filled with 180 μL of Potato Dextrose Agar (PDA). Three wells were used per concentration for better accuracy. After solidification of the well, either a plug of 2×2 mm of grown fungi (curative case) or 20 μL of a spore solution (˜1E5 spores/mL, preventive case) was placed in each well, and the 48-well plate was sealed with parafilm. After 7 days of incubation at 20° C. in a controlled growth chamber, the fungal outgrowth was measured and the EC50 was calculated with a 4-parameter logistic regression in XLSTAT.
(§4) Afterward, a concentration of the fungicides at which the fungi is not growing (i.e. […] the EC50) was determined. Applicants repeated the 48-well experiment by filling the well with a mixture of the ITO and the fungicides; the fungicide concentration was kept constant at the determined concentration mentioned above and the ITO concentration was varied. As before, the fungal outgrowth was measured after 7 days of incubation. To calculate the synergistic properties of the combo ITO+fungicides, the Combination Index (CI) described by Chou (2006) was calculated using the CompuSyn software.

Assay [2] has as its system Rhizoctonia solani. Nature of the assay: In vitro fungitoxic activity, 48-well PDA outgrowth, preventive (spore solution). The settings on record: 168 h, fungicide alone, 7 days at 20° C. Here is the method:
as §3, §4

In another assay the test system is Colletotrichum acutatum. Nature of the assay: In vitro fungitoxic activity, 48-well PDA outgrowth, curative (Example 2). The settings on record: 168 h, fungicide alone, 7 days at room temperature. As to the method: as §1, §2
For assay [3], the system named is Lasiodiplodia pseudotheobromae. The description is as above. Particulars: 168 h, read-out: EC50 fungicide. As to the method:
as §1, §2

The subject of the next assay is Alternaria radicina. The experiment in a line: In vitro fungitoxic activity, 48-well PDA outgrowth, curative. Particulars: 168 h, read-out: EC50 fungicide. As to the method:
as §3, §4

A further assay has as its system Botrytis cinerea. Described as above. Particulars: 168 h, read-out: EC50 fungicide. As to the method: as §3, §4
Assay [4] relates to Geotrichum candidum. Described as above. The settings on record: 168 h, read-out: EC50 fungicide. As to the method: as §3, §4
Another assay concerns Penicillium digitatum. Described as above. Particulars: 168 h, read-out: EC50 fungicide. As to the method: as §3, §4
For assay [5], the system named is Plectosphaerella cucumerina. The experiment in a line: In vitro fungitoxic activity, 48-well PDA outgrowth, curative (Example 2). The settings on record: 168 h, read-out: EC50 fungicide. Here is the method: as §1, §2
Assay [6] deals with Geotrichum candidum. Nature of the assay: In vitro fungitoxic activity, 48-well PDA outgrowth, preventive (spore solution). Particulars: 168 h, fungicide alone, 7 days at 20° C. As to the method: as §3, §4
The test system of another assay is Penicillium commune. Nature of the assay: In vitro fungitoxic activity, 48-well PDA outgrowth, curative (Example 2). Particulars: 168 h, fungicide alone, 7 days at room temperature. As to the method:
as §1, §2

[7] abbreviates: fungicide alone, curative, 7 days at room temperature.
Where [8] appears, read: fungicide alone, curative, 7 days at 20° C.

Take `O=C1C2CC=CCC2C(=O)N1SC(Cl)(Cl)Cl` (stereo not shown) [Captan]: the EC50 in the assay with Fusarium verticilloides was determined as 424 µM.
Take `N#Cc1c(Cl)c(Cl)c(Cl)c(C#N)c1Cl` [Chlorothalonil]: the EC50 in the assay on Rhizoctonia solani [1] worked out at 29 µM; with Rhizoctonia solani [2], 2 µM; in the assay on Colletotrichum acutatum, 52 µM.
Consider `Cc1cc(C2CC2)nc(Nc2ccccc2)n1` [Cyprodinil], for which the EC50 in assay [3] (setting [7]) was found to be 9 µM.
With `CCCCCCCCCCCCNC(=N)N` [Dodine], the EC50 was 110 µM with Alternaria radicina; 189 µM in the assay on Botrytis cinerea; 156 µM in the assay on Geotrichum candidum [4]; 92 µM in the assay on Penicillium digitatum; 476 µM in assay [3]; 93 µM in assay [5].
In the case of `N#Cc1c[nH]cc1-c1cccc2c1OC(F)(F)O2` [Fludioxonil], in assay [3], the EC50 was found to be 1 µM.
Turning to `Cc1cc(C)nc(Nc2ccccc2)n1` [Pyrimethanil], the values for the EC50 with Alternaria radicina (setting [8]) and with Rhizoctonia solani [1] were 3 µM and 28 µM, respectively.
For `CC(C)(C)C(O)(CCc1ccc(Cl)cc1)Cn1cncn1` (stereo not shown) [Tebuconazole], the EC50 in the assay on Alternaria radicina (setting [8]) was found to be 30 µM; with Geotrichum candidum [4] (setting [8]), 27 µM; with Penicillium digitatum (setting [8]), 1 µM; in the assay with Rhizoctonia solani [1] it was 18 µM; in the assay on Geotrichum candidum [6] it was 25 µM; in the assay with Fusarium verticilloides it was 6 µM. Further, the EC50 in [3] (setting [7]) is 300 µM; with Penicillium commune it was 179 µM.
